Test results published in patent publication US20050101595A1, “N-containing cycloalkyl-substituted amino-thiazole derivatives and pharmaceutical compositions for inhibiting cell proliferation and methods for their use” (PFIZER INC., priority 2003, published 2005).
Counter-ions that a name gives are not always drawn. Like-named read-outs stand apart in the source and are kept apart here.

Tests used:
[1] = target: human CDK4 and genetically truncated (1-264) cyclin D3 (Homo sapiens, UniProt P11802); assay: Inhibition of CDK4/Cyclin D Retinoblastoma Kinase Activity; assay type: biochemical; details: for Ki: apparent Ki, CDK4/truncated cyclin D3, Rb fragment substrate, 25 μM ATP
Method in brief: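 Human CDK4/truncated cyclin D3 (1-264) complex from baculovirus-infected insect cells, 5 nM, phosphorylating Rb fragment (residues 386-928, His-tagged) with 25 μM [32/33P]ATP in HEPES pH 7.4, MgCl2, 2% DMSO at 30° C. for 20 min (60 min for tight binders). Filter-captured radioactivity by phosphorimager; apparent Ki from competitive or tight-binding fits.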

CDK2/Cyclin A = CDK2/Cyclin A (Homo sapiens, UniProt P24941); assay: Inhibition of CDK2/Cyclin A Retinoblastoma Kinase Activity; assay type: biochemical; details: for Ki: apparent Ki, CDK2/proteolyzed cyclin A, Rb fragment substrate, 25 μM ATP
Method in brief: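 Baculovirus-expressed CDK2 complexed with proteolyzed cyclin A (10 or 19 nM), Rb fragment substrate, 25 μM [32P/33P]ATP, HEPES pH 7.4, 30 °C for 60 or 75 min under initial-rate conditions. Filter capture and phosphorimager readout; apparent Ki fitted to competitive or tight-binding competitive inhibition.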

HCT-116 cell line = assay: Inhibition of cell growth, tetrazolium salt (MTT) assay; assay type: cell-based; details: for IC50: Homo sapiens, HCT-116, 120 h, MTT, three to five days, read-out: HCT-116 IC50; for HCT-116 % Inhibition at 0.25 μM: 0.25 μM compound
Method in brief: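 HCT-116 cells in McCoy's 5A medium received compound 4 h after plating (0.5% v/v DMSO) and were incubated three to five days at 37° C, 5% CO2. MTT (0.2 mg/mL final) then added for 4 h; DMSO-solubilized formazan read at 540 nm against 0.5% DMSO-treated controls.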

[2] = 0.1 μM compound, HCT-116, Table 4

human CDK4 and genetically truncated (1-264) cyclin D3, sequence (P11802 whole entry, the tested form may be a part): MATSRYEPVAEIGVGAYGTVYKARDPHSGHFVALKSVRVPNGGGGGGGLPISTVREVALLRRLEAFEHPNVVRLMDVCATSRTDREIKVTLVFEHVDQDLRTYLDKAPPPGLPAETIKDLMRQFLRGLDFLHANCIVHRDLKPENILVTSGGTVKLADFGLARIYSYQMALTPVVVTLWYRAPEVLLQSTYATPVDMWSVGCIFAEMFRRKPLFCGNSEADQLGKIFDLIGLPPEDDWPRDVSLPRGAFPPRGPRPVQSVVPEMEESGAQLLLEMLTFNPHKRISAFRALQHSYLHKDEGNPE
human CDK4 and genetically truncated (1-264) cyclin D3, sequence (P30281 1-264 partner): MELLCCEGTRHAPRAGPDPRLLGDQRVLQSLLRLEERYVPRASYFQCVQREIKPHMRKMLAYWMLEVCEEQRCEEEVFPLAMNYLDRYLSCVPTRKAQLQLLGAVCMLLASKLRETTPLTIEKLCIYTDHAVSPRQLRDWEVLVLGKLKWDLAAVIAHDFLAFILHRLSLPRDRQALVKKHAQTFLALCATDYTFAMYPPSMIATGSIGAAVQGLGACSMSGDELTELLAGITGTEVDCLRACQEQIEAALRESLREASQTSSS

Ki [1] [µM]	Ki (CDK2/Cyclin A) [µM]	IC50 (HCT-116 cell line; first HCT-116 column (c4)) [µM]	IC50 (HCT-116 cell line; second HCT-116 column (c5)) [µM]	CDK4 % Inhibition at 0.03 μM ([1]; at 0.03 μM) [%]	CDK2 % Inhibition at 0.03 μM (CDK2/Cyclin A; at 0.03 μM) [%]	SMILES	HCT-116 % Inhibition at 0.1 μM (HCT-116 cell line; HCT-116 cells, at 0.1 μM) [%]	HCT-116 5 Inhibition at 0.25 μM (HCT-116 cell line; HCT-116 cells)	further results
0.00065	0.0011	0.09	0.4	–	–	CC(CN(C)C)Oc1ccc(S(=O)(=O)N2CCC(Nc3nc(N)c(C(=O)c4c(F)cccc4F)s3)CC2)cn1 (racemic) [Example H13, 1-(4-Amino-2-{1-[6-(2-dimethylamino-1RS-methyl-ethoxy)-pyridine-3-sulfonyl]-piperidin-4-ylamino}-thiazol-5-yl)-1-(2,6-fifluoro-phenyl)-methanone Dihydrochloride]	–	–	–
–	–	–	–	25	16	Nc1nc(NC2CCN(C(=O)c3cccnc3Oc3ccc(Cl)cc3)CC2)sc1C(=O)c1c(F)cccc1F [Example R44]	0	41	–
0.0027	0.0018	0.31	2.9	–	–	Nc1nc(NC2CCN(S(=O)(=O)CCCN3CCCC3)CC2)sc1C(=O)c1c(F)cccc1F [Example K8, 1-(4-Amino-2-{1-[3-(pyrrolidin-1-yl)propane-1 sulfonyl]-piperidin-4-ylamino}-thiazol-5-yl)-1-(2,6-difluoro-phenyl)-methanone.]	–	–	–
0.00063	< 0.001	1.2	5	–	–	CN1CCN=C1c1ccc(S(=O)(=O)N2CCC(Nc3nc(N)c(C(=O)c4c(F)cccc4F)s3)CC2)cc1 [Example J1, 1-[4-Amino-2-{1-[4-(1-methyl-4,5-dihydro-1H-imidazol-2-yl)-benzenesulfonyl]-piperidin-4-ylamino}-thiazol-5-yl)-1-(2,6-difluoro-phenyl)-methanone]	–	–	–
–	–	–	–	65	60	COc1ccccc1C(=O)N1CCC(Nc2nc(N)c(C(=O)c3c(F)cccc3F)s2)CC1 [Example R114]	0	42	–
–	–	–	–	–	–	Nc1nc(NC2CCN(C(=O)c3ccccc3F)CC2)sc1C(=O)c1c(F)cccc1F [Example Q11]	–	–	CDK4 % Inhibition at 0.03 μM ([1]; 0.03 μM compound, Table 4): 57%; CDK2 % Inhibition at 0.03 μM (CDK2/Cyclin A; 0.03 μM compound, Table 4): 30%; HCT-116 % Inhibition at 0.1 μM (HCT-116 cell line; [2]): 7%; HCT-116 % Inhibition at 0.25 μM (HCT-116 cell line; HCT-116, Table 4): 43%
–	–	–	–	20	−7	Cc1c(S(=O)(=O)c2ccc(Cl)cc2)csc1C(=O)N1CCC(Nc2nc(N)c(C(=O)c3c(F)cccc3F)s2)CC1 [Example R47]	8	45	–
0.0025	0.00049	0.1	0.36	–	–	CC1CC(NCCS(=O)(=O)N2CCC(Nc3nc(N)c(C(=O)c4c(F)cccc4F)s3)CC2)CC(C)(C)C1 (stereo not shown) [Example K44]	–	–	–
0.00056	0.00026	0.3	0.5	–	–	Nc1nc(NC2CCN(S(=O)(=O)c3ccc(-c4ncc[nH]4)nc3)CC2)sc1C(=O)c1c(F)cccc1F [Example I1, 1-(4-Amino-2-{1-[6-(1H-imidazol-2-yl)-pyridine-3-sulfonyl]-piperidin-4-ylamino}-thiazol-5-yl)-1-(2,6-difluoro-phenyl)-methanone Hydrochloride]	–	–	–
–	–	–	–	–	–	Nc1nc(NC2CCN(S(=O)(=O)c3ccc(Cl)cc3)CC2)sc1C(=O)c1c(F)cccc1F [Example P14]	–	–	CDK4 % Inhibition at 0.03 μM ([1]; 0.03 μM compound, Table 3): 67%; CDK2 % Inhibition at 0.03 μM (CDK2/Cyclin A; 0.03 μM compound, Table 3): 60%; HCT-116 % Inhibition at 0.1 μM (HCT-116 cell line; 0.1 μM compound, HCT-116, Table 3): 23%; HCT-116 % Inhibition at 0.25 μM (HCT-116 cell line; HCT-116, Table 3): 25%
–	–	–	–	–	–	Cc1ccc(C(=O)N2CCC(Nc3nc(N)c(C(=O)c4c(F)cccc4F)s3)CC2)cc1 [Example Q35]	–	–	CDK4 % Inhibition at 0.03 μM ([1]; 0.03 μM compound, Table 4): 64%; CDK2 % Inhibition at 0.03 μM (CDK2/Cyclin A; 0.03 μM compound, Table 4): 35%; HCT-116 % Inhibition at 0.1 μM (HCT-116 cell line; [2]): 3%; HCT-116 % Inhibition at 0.25 μM (HCT-116 cell line; HCT-116, Table 4): 21%
–	–	–	–	34	18	Nc1nc(NC2CCN(C(=O)CCCC3CCCCC3)CC2)sc1C(=O)c1c(F)cccc1F [Example R102]	0	43	–
–	–	–	–	60	57	Nc1nc(NC2CCN(C(=O)c3sc4ccccc4c3Cl)CC2)sc1C(=O)c1c(F)cccc1F [Example R31]	0	42	–
